Results on 14 molecules are retold here after patent US9890189B2, “Gemcitabine prodrugs and uses thereof” (BoYen Therapeutics, Inc., priority 2012, dated 2018).

Data set [1] concerns human HCT116 colorectal adenocarcinoma. Kind of data set: Efficacy evaluation in HCT116 tumor cell xenograft model in nude mice. It is filed as in vivo. The following applies: female nude mice, subcutaneous HCT116 tumors, Day 14 vs control group. On the procedure:
Method I: Efficacy Evaluation in HCT116 Tumor Cell Xenograft Model in Nude Mice Compounds 17, 18, 19 and 32 were evaluated for oral activity against human HCT116 colorectal adenocarcinoma in female nude mice. For the treatment groups, the above compounds were given perorally in 15% Tween 80 at a dose of 20 mg/kg once daily for 14 days. As a reference group, gemcitabine was administered intraperitoneally at 160 mg/kg once every three days for 4 doses. A control group received only the vehicle on the same peroral schedule as that of the treatment groups. Treatment began on Day 1 in all groups of female nude mice (n=8) bearing subcutaneous tumors of ˜180 mm^3 in size; the study duration was 14 days. Treatment results were presented as Tumor Growth Inhibition (TGI) as a percentage of average tumor size of untreated mice in the control group at Day 14.

Data set [2] is described as follows: In vitro metabolic conversion assay using human liver S9 fractions. Type of data set: in vitro ADME. The note with it: 10 μM, 37° C., 60 minutes, LC/MS/MS; for Formation of Gemcitabine: not quantitatively monitored. The method, then: Method H: In Vitro Metabolic Conversion Assay Using Human Liver S9 Fractions
A representative sampling of prodrug compounds was incubated with human liver S9 fractions (Life Technologies Corporation) at 10 μM in duplicates. Incubations were carried out at 37° C. in a shaker water bath. Samples were taken at 0 and 60 minutes. Negative controls (without S9 fractions) and positive controls (7-ethoxycoumarin and 7-hydroxycoumarin) were run concurrently with the test articles in duplicates. All samples were analyzed using LC/MS/MS; depletion of the parent compounds and the formation of gemcitabine were monitored, though the latter was not quantitatively monitored.
After incubation with human liver S9 fractions for 60 minutes, depletion of each test compound was observed along with formation of gemcitabine as a metabolite.

Where [3] appears, read: perorally in 15% Tween 80, 20 mg/kg once daily for 14 days.

With `CCCCOC(=O)Nc1ccn([C@@H]2O[C@H](COC(=O)CCC(=O)Nc3ccccc3)[C@@H](O)C2(F)F)c(=O)n1` [Compound 19, 1-[(2R,4R,5R)-5-((4-Anilino-4-oxo-butanoyloxy)methyl)-3,3-difluoro-4-hydroxy-oxolan-2-yl]-4-(butyloxycarbonylamino)-1,2-dihydro-pyrimidin-2-one], in data set [1] (setting [3]), the “Tumor Growth Inhibition (TGI)” value was 75.8%.
For `Nc1ccn([C@@H]2O[C@H](COC(=O)CCCCC(=O)Nc3ccccc3)[C@@H](O)C2(F)F)c(=O)n1` [Compound 6, 4-Amino-1-[(2R,4R,5R)-5-((6-anilino-6-oxo-hexanoyloxy)methyl)-3,3-difluoro-4-hydroxy-oxolan-2-yl]-1,2-dihydropyrimidin-2-one], in data set [2], the “% of Parent Remaining” value is recorded as 8% and the “Formation of Gemcitabine” value was “✓”.
For `CCOC(=O)Nc1ccn([C@@H]2O[C@H](COC(=O)CCCCCCC(=O)Nc3ccccc3)[C@@H](O)C2(F)F)c(=O)n1` [Compound 14, 1-[(2R,4R,5R)-5-((8-Anilino-8-oxo-octanoyloxy)methyl)-3,3-difluoro-4-hydroxy-oxolan-2-yl]-1,2-dihydro-4-(ethoxycarbonylamino)-pyrimidin-2-one], in data set [2], the “% of Parent Remaining” value is recorded as 0% and the “Formation of Gemcitabine” value is recorded as “✓”.
Turning to `CCOC(=O)Nc1ccn([C@@H]2O[C@H](COC(=O)CCCCC(=O)Nc3ccccc3)[C@@H](O)C2(F)F)c(=O)n1` [Compound 13, 1-[(2R,4R,5R)-5-((6-Anilino-6-oxo-hexanoyloxy)methyl)-3,3-difluoro-4-hydroxy-oxolan-2-yl]-1,2-dihydro-4-(ethoxycarbonylamino)-pyrimidin-2-one], in data set [2], the “% of Parent Remaining” value turned out to be 13% and the “Formation of Gemcitabine” value is reported as “✓”.
`CCCCOC(=O)Nc1ccn([C@@H]2O[C@H](COC(=O)CCc3ccccc3)[C@@H](O)C2(F)F)c(=O)n1` [Compound 17, 4-(Butyloxycarbonylamino)-1-[(2R,4R,5R)-3,3-difluoro-4-hydroxy-5-(3-phenylpropanoyloxymethyl)oxolan-2-yl]-1,2-dihydropyrimidin-2-one]: the “Tumor Growth Inhibition (TGI)” value in data set [1] (setting [3]) amounted to 77.3%.
Same read-out and setting: with `CCCCCOC(=O)Nc1ccn([C@@H]2O[C@H](COC(=O)CCc3cccnc3)[C@@H](O)C2(F)F)c(=O)n1` [Compound 32, 1-[(2R,4R,5R)-3,3-Difluoro-4-hydroxy-5-(3-(3-pyridyl)-propanoyloxymethyl)oxolan-2-yl]-1,2-dihydro-4-(pentyloxycarbonylamino)-pyrimidin-2-one] the figure was 86.7%.
As for `CCOC(=O)Nc1ccn([C@@H]2O[C@H](COC(=O)CCc3ccccc3)[C@@H](O)C2(F)F)c(=O)n1` [Compound 10, 1-[(2R,4R,5R)-3,3-Difluoro-4-hydroxy-5-(3-phenylpropanoyloxymethyl)oxolan-2-yl]-1,2-dihydro-4-(ethoxycarbonylamino)-pyrimidin-2-one], in data set [2], the “% of Parent Remaining” value turned out to be 0% and the “Formation of Gemcitabine” value was “✓”.
Regarding `CCCCOC(=O)Nc1ccn([C@@H]2O[C@H](COC(=O)CCc3cccnc3)[C@@H](O)C2(F)F)c(=O)n1` [Compound 18, 4-(Butyloxycarbonylamino)-1-[(2R,4R,5R)-3,3-difluoro-4-hydroxy-5-(3-(3-pyridyl)propanoyloxymethyl)oxolan-2-yl]-1,2-dihydro-pyrimidin-2-one], the “Tumor Growth Inhibition (TGI)” value in data set [1] (setting [3]) amounted to 81.1%.
For the molecule `CCOC(=O)Nc1ccn([C@@H]2O[C@H](CO)[C@@H](OC(=O)CCc3cccnc3)C2(F)F)c(=O)n1` [Compound 59, 1-[(2R,4R,5R)-3,3-Difluoro-5-hydroxymethyl-4-(3-(3-pyridyl)propanoyloxy)oxolan-2-yl]-1,2-dihydro-4-(ethoxycarbonylamino)-pyrimidin-2-one], in data set [2], the “% of Parent Remaining” value is given as 1% and the “Formation of Gemcitabine” value is “✓”.
Consider `CCOC(=O)Nc1ccn([C@@H]2O[C@H](COC(=O)CCc3cccnc3)[C@@H](O)C2(F)F)c(=O)n1` [Compound 11, 1-[(2R,4R,5R)-3,3-Difluoro-4-hydroxy-5-(3-(3-pyridyl)-propanoyloxymethyl)oxolan-2-yl]-1,2-dihydro-4-(ethoxycarbonylamino)-pyrimidin-2-one], for which, in data set [2], the “% of Parent Remaining” value was found to be 0% and the “Formation of Gemcitabine” value is on record as “✓”.
The corresponding values for `CCOC(=O)Nc1ccn([C@@H]2O[C@H](CO)[C@@H](OC(=O)CCCCCCC(=O)Nc3ccccc3)C2(F)F)c(=O)n1` [Compound 62, 1-[(2R,4R,5R)-4-(8-Anilino-8-oxo-octanoyloxy)-3,3-difluoro-5-hydroxymethyl-oxolan-2-yl]-1,2-dihydro-4-(ethoxycarbonylamino)-pyrimidin-2-one] are 2% and “✓”.
The corresponding values for `CCOC(=O)Nc1ccn([C@@H]2O[C@H](CO)[C@@H](OC(=O)CCc3ccccc3)C2(F)F)c(=O)n1` [Compound 58, 1-[(2R,4R,5R)-3,3-Difluoro-5-hydroxymethyl-4-(3-phenylpropanoyloxy)oxolan-2-yl]-1,2-dihydro-4-(ethoxycarbonylamino)-pyrimidin-2-one] are 0% and “✓”.
The corresponding values for `Nc1ccn([C@@H]2O[C@H](COC(=O)CCc3ccccc3)[C@@H](O)C2(F)F)c(=O)n1` [Compound 3, 4-Amino-1-[(2R,4R,5R)-3,3-difluoro-4-hydroxy-5-(3-phenylpropanoyloxymethyl)oxolan-2-yl]-1,2-dihydropyrimidin-2-one] are 1% and “✓”.
Take `Nc1ccn([C@@H]2O[C@H](CO)[C@@H](O)C2(F)F)c(=O)n1` [gemcitabine]: the “Tumor Growth Inhibition (TGI)” value in data set [1] (intraperitoneally 160 mg/kg once every three days for 4 doses) is given as 85.6%.
